{
  "source": "patent US8168592B2",
  "about": "(Amgen Inc., priority 2005, dated 2012)",
  "note": "Bridge positions count the residues as written; N and C are the ends. Square brackets hold non-standard residues; d marks the D form. Peptide text beside a SMILES is read from it. Oic = O=C(O)[C@@H]1C[C@@H]2CCCC[C@@H]2N1; hArg = N=C(N)NCCCC[C@H](N)C(=O)O; Cit = NC(=O)NCCC[C@H](N)C(=O)O",
  "data": [
    {"target": "T1, CGRP1 receptor (Homo sapiens, UniProt O60894+Q16602)", "T1 construct": "SK-N-MC cells express CRLR and RAMP1, which form CGRP1 receptor; endogenous in cells; host or cells: SK-N-MC human neuroblastoma cells", "T1 sequence (Q16602 23-461)": "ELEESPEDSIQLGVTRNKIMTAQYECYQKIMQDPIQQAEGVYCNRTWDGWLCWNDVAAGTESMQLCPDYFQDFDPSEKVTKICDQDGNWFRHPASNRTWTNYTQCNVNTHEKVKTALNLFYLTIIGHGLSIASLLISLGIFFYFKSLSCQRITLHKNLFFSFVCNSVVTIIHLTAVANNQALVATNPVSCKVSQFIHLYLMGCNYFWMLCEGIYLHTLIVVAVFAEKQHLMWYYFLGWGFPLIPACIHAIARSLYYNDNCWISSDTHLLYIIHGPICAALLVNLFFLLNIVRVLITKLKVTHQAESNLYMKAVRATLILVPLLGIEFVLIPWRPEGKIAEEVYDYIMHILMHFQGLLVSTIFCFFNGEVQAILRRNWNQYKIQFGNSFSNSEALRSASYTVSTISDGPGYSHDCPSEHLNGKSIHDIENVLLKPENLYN", "T1 sequence (O60894 27-148)": "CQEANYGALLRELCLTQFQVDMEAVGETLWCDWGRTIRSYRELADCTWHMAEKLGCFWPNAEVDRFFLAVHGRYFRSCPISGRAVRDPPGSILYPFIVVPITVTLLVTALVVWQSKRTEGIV", "assay": "in vitro CGRP1 receptor mediated cAMP assay in SK-N-MC cells", "type": "cell-based", "details": "IC50, Table 2A", "protocol": "(§1) The in vitro cAMP assay employed a human neuroblastoma-derived cell line (SK-N-MC). SK-N-MC cells express CRLR and RAMP1, which form CGRP1 receptor. CGRP1 receptor is a G-protein coupled receptor linked to the stimulatory G-protein, Gs. […] Briefly, two days before the assay, the cells were plated in 96-well plates in growth medium. On the day of the assay cells were rinsed with PBS followed by the addition of 60 μl of plasma free medium for 15 minutes at room temperature. […] The medium was then removed and the cells were lysed with 100 μl lysis buffer for 30 minutes at 37° C. for 30 minutes. Using a Tropix ELISA kit (Applied Biosystems, Foster City, Calif.), a cAMP-AP conjugate was diluted (1:100) and added (30 μl) to each well of a 96-well ELISA plate. An aliquot of the lysis buffer from the cell plate was then added to the ELISA plate followed by an aliquot of the cAMP antibody. This mixture was incubated for 1 hour at room temperature with gentle shaking. The ELISA plate was then washed 6× with wash buffer followed by the additions of a substrate enhancer. This mixture was incubated for 30 minutes at room temperature and then read on a MicroBeta Jet or EnVision plate reader. The results were analyzed using Prism (GraphPad).", "units": {"IC50": "nM"}, "values": [
      {"smiles": "CC(=O)N[C@@H](Cc1c[nH]c2ccccc12)C(=O)N[C@H](C(=O)N[C@H]1CCC(=O)NCCCC[C@@H](C(=O)NCC(=O)N[C@@H](CC(C)C)C(=O)N[C@@H](CC(C)C)C(=O)N[C@@H](CO)C(=O)N[C@@H](CCCNC(N)=O)C(=O)N[C@@H](CO)C(=O)NCC(=O)NCC(=O)N[C@H](C(=O)N[C@H](C(=O)N[C@@H](CCCCNC(=N)N)C(=O)N[C@@H](CCCCN)C(=O)N[C@@H](CC(N)=O)C(=O)N[C@@H](Cc2ccccc2)C(=O)N[C@H](C(=O)N2CCC[C@H]2C(=O)N[C@H](C(=O)N[C@@H](CC(=O)O)C(=O)N[C@H](C(=O)NCC(=O)N2CCC[C@H]2C(=O)N[C@@H](Cc2ccccc2)C(=O)N[C@@H](C)C(=O)N[C@@H](Cc2ccccc2)C(N)=O)C(C)C)[C@@H](C)O)C(C)C)C(C)C)C(C)C)NC(=O)[C@H](CC(C)C)NC(=O)[C@H](CCCNC(=N)N)NC(=O)[C@H](Cc2c[nH]cn2)NC1=O)C(C)C", "note": "[compound 663] (Ac-WVEHRLKGLLS[Cit]SGGVV[hArg]KNFVPTDVGPFAF-NH2; lactam 3-7)", "IC50": "1.22 to 2.06"}
    ]},
    {"target": "T1, CGRP1 receptor", "assay": "in vitro CGRP1 receptor mediated cAMP assay in SK-N-MC cells", "type": "cell-based", "details": "Table 2A; read-out: IC50", "protocol": "as §1", "units": {"IC50": "nM"}, "values": [
      {"smiles": "CC(=O)N[C@@H](Cc1c[nH]c2ccccc12)C(=O)N[C@H](C(=O)N[C@H](C(=O)N[C@@H](Cc1c[nH]cn1)C(=O)N[C@@H](CCCNC(N)=O)C(=O)N[C@@H](CC(C)C)C(=O)N[C@@H](C)C(=O)NCC(=O)N[C@@H](CC(C)C)C(=O)N[C@@H](CC(C)C)C(=O)N[C@@H](CO)C(=O)N[C@@H](CCCNC(N)=O)C(=O)N[C@@H](CO)C(=O)NCC(=O)NCC(=O)N[C@H](C(=O)N[C@H](C(=O)N[C@@H](CCCCNC(=N)N)C(=O)N[C@@H](CCCCN)C(=O)N[C@@H](CC(N)=O)C(=O)N[C@@H](Cc1ccccc1)C(=O)N[C@H](C(=O)N1CCC[C@H]1C(=O)N[C@H](C(=O)N[C@@H](CC(=O)O)C(=O)N[C@H](C(=O)NCC(=O)N1CCC[C@H]1C(=O)N[C@@H](Cc1ccccc1)C(N)=O)C(C)C)[C@@H](C)O)C(C)C)C(C)C)C(C)C)[C@@H](C)O)C(C)C", "note": "[compound 655] (Ac-WVTH[Cit]LAGLLS[Cit]SGGVV[hArg]KNFVPTDVGPF-NH2)", "IC50": "> 1000"},
      {"smiles": "CC(=O)N[C@@H](Cc1c[nH]c2ccccc12)C(=O)N[C@H](C(=O)N[C@H](C(=O)N[C@@H](Cc1c[nH]cn1)C(=O)N[C@@H](CCCNC(N)=O)C(=O)N[C@@H](CC(C)C)C(=O)N[C@@H](C)C(=O)NCC(=O)N[C@@H](CC(C)C)C(=O)N[C@@H](CC(C)C)C(=O)N[C@@H](CO)C(=O)N[C@@H](CCCNC(N)=O)C(=O)N[C@@H](CO)C(=O)NCC(=O)NCC(=O)N[C@H](C(=O)N[C@H](C(=O)N[C@@H](CCCCNC(=N)N)C(=O)N[C@@H](CCCCN)C(=O)N[C@@H](CC(N)=O)C(=O)N[C@@H](Cc1ccccc1)C(=O)N[C@H](C(=O)N1CCC[C@H]1C(=O)N[C@H](C(=O)N[C@@H](CC(=O)O)C(=O)N[C@H](C(=O)NCC(=O)N1CCC[C@H]1C(N)=O)C(C)C)[C@@H](C)O)C(C)C)C(C)C)C(C)C)[C@@H](C)O)C(C)C", "note": "[compound 656] (Ac-WVTH[Cit]LAGLLS[Cit]SGGVV[hArg]KNFVPTDVGP-NH2)", "IC50": "> 1000"},
      {"smiles": "CC(=O)N[C@@H](CCCNC(N)=O)C(=O)N[C@@H](CC(C)C)C(=O)N[C@@H](C)C(=O)NCC(=O)N[C@@H](CC(C)C)C(=O)N[C@@H](CC(C)C)C(=O)N[C@@H](CO)C(=O)N[C@@H](CCCNC(N)=O)C(=O)N[C@@H](CO)C(=O)NCC(=O)NCC(=O)N[C@H](C(=O)N[C@H](C(=O)N[C@@H](CCCCNC(=N)N)C(=O)N[C@@H](CCCCN)C(=O)N[C@@H](CC(N)=O)C(=O)N[C@@H](Cc1ccccc1)C(=O)N[C@H](C(=O)N1CCC[C@H]1C(=O)N[C@H](C(=O)N[C@@H](CC(=O)O)C(=O)N[C@H](C(=O)NCC(=O)N1CCC[C@H]1C(=O)N[C@@H](Cc1ccccc1)C(=O)N[C@@H](C)C(=O)N[C@@H](Cc1ccccc1)C(N)=O)C(C)C)[C@@H](C)O)C(C)C)C(C)C)C(C)C", "note": "[compound 657] (Ac-[Cit]LAGLLS[Cit]SGGVV[hArg]KNFVPTDVGPFAF-NH2)", "IC50": 13},
      {"smiles": "CC(=O)N[C@@H](Cc1c[nH]c2ccccc12)C(=O)N[C@H](C(=O)N[C@H](C(=O)N[C@@H](Cc1c[nH]cn1)C(=O)N[C@@H](CCCNC(N)=O)C(=O)N[C@@H](CC(C)C)C(=O)N[C@@H](C)C(=O)NCC(=O)N[C@@H](CC(C)C)C(=O)N[C@@H](CC(C)C)C(=O)N[C@@H](CO)C(=O)N[C@@H](CCCNC(N)=O)C(=O)N[C@@H](CO)C(=O)NCC(=O)NCC(=O)N[C@H](C(=O)N[C@H](C(=O)N[C@@H](CCCCNC(=N)N)C(=O)N[C@@H](CCCCN)C(=O)N[C@@H](CC(N)=O)C(=O)N[C@@H](Cc1ccccc1)C(=O)N[C@H](C(=O)N1CCC[C@H]1C(=O)N[C@H](C(=O)N[C@@H](CC(=O)O)C(=O)N[C@H](C(=O)NCC(=O)N1[C@H](C(=O)N[C@@H](Cc2ccccc2)C(=O)N[C@@H](C)C(N)=O)C[C@@H]2CCCC[C@@H]21)C(C)C)[C@@H](C)O)C(C)C)C(C)C)C(C)C)[C@@H](C)O)C(C)C", "note": "[compound 659] (Ac-WVTH[Cit]LAGLLS[Cit]SGGVV[hArg]KNFVPTDVG[Oic]FA-NH2)", "IC50": "> 1000"},
      {"smiles": "CC(=O)N[C@H](C(=O)N[C@H](C(=O)N[C@@H](Cc1c[nH]cn1)C(=O)N[C@@H](CCCNC(N)=O)C(=O)N[C@@H](CC(C)C)C(=O)N[C@@H](C)C(=O)NCC(=O)N[C@@H](CC(C)C)C(=O)N[C@@H](CC(C)C)C(=O)N[C@@H](CO)C(=O)N[C@@H](CCCNC(N)=O)C(=O)N[C@@H](CO)C(=O)NCC(=O)NCC(=O)N[C@H](C(=O)N[C@H](C(=O)N[C@@H](CCCCNC(=N)N)C(=O)N[C@@H](CCCCN)C(=O)N[C@@H](CC(N)=O)C(=O)N[C@@H](Cc1ccccc1)C(=O)N[C@H](C(=O)N1CCC[C@H]1C(=O)N[C@H](C(=O)N[C@@H](CC(=O)O)C(=O)N[C@H](C(=O)NCC(=O)N1[C@H](C(=O)N[C@@H](Cc2ccccc2)C(=O)N[C@@H](C)C(=O)N[C@@H](Cc2ccccc2)C(N)=O)C[C@@H]2CCCC[C@@H]21)C(C)C)[C@@H](C)O)C(C)C)C(C)C)C(C)C)[C@@H](C)O)C(C)C", "note": "[compound 660] (Ac-VTH[Cit]LAGLLS[Cit]SGGVV[hArg]KNFVPTDVG[Oic]FAF-NH2)", "IC50": 3},
      {"smiles": "CC(=O)N[C@@H](Cc1c[nH]c2ccccc12)C(=O)N[C@H](C(=O)N[C@H](C(=O)N[C@@H](Cc1c[nH]cn1)C(=O)N[C@@H](CCCNC(N)=O)C(=O)N[C@@H](CC(C)C)C(=O)N[C@@H](C)C(=O)NCC(=O)N[C@@H](CC(C)C)C(=O)N[C@@H](CC(C)C)C(=O)N[C@@H](CO)C(=O)N[C@@H](CCCNC(N)=O)C(=O)N[C@@H](CO)C(=O)NCC(=O)NCC(=O)N[C@H](C(=O)N[C@H](C(=O)N[C@@H](Cc1ccc(NC(=N)N)cc1)C(=O)N[C@@H](CCCCN)C(=O)N[C@@H](CC(N)=O)C(=O)N[C@@H](Cc1ccccc1)C(=O)N[C@H](C(=O)N1CCC[C@H]1C(=O)N[C@H](C(=O)N[C@@H](CC(=O)O)C(=O)N[C@H](C(=O)NCC(=O)N1[C@H](C(=O)N[C@@H](Cc2ccccc2)C(=O)N[C@@H](C)C(=O)N[C@@H](Cc2ccccc2)C(N)=O)C[C@@H]2CCCC[C@@H]21)C(C)C)[C@@H](C)O)C(C)C)C(C)C)C(C)C)[C@@H](C)O)C(C)C", "note": "[compound 664]", "IC50": "2.29 to 2.95"},
      {"smiles": "CC(=O)N[C@@H](Cc1c[nH]c2ccccc12)C(=O)N[C@H](C(=O)N[C@H](C(=O)N[C@@H](Cc1c[nH]cn1)C(=O)N[C@@H](CCCNC(N)=O)C(=O)N[C@@H](CC(C)C)C(=O)N[C@@H](C)C(=O)NCC(=O)N[C@@H](CC(C)C)C(=O)N[C@@H](CC(C)C)C(=O)N[C@@H](CO)C(=O)N[C@@H](CCCNC(N)=O)C(=O)N[C@@H](CO)C(=O)NCC(=O)NCC(=O)N[C@H](C(=O)N[C@H](C(=O)N[C@@H](CCCCNC(=N)N)C(=O)N[C@@H](CCCCN)C(=O)N[C@@H](CC(N)=O)C(=O)N[C@@H](Cc1ccccc1)C(=O)N[C@H](C(=O)N1CCC[C@H]1C(=O)N[C@H](C(=O)N[C@@H](CC(=O)O)C(=O)N[C@H](C(=O)NCC(=O)NC1(C(=O)N[C@@H](Cc2ccccc2)C(=O)N[C@@H](C)C(=O)N[C@@H](Cc2ccccc2)C(N)=O)Cc2ccccc2C1)C(C)C)[C@@H](C)O)C(C)C)C(C)C)C(C)C)[C@@H](C)O)C(C)C", "note": "[compound 669]", "IC50": "33.2 to 262"},
      {"smiles": "CC(=O)N[C@@H](Cc1c[nH]c2ccccc12)C(=O)N[C@H](C(=O)N[C@H](C(=O)N[C@@H](Cc1cnc[nH]1)C(=O)N[C@@H](CCCNC(N)=O)C(=O)N[C@@H](CC(C)C)C(=O)N[C@@H](C)C(=O)NCC(=O)N[C@@H](CC(C)C)C(=O)N[C@@H](CC(C)C)C(=O)N[C@@H](CO)C(=O)N[C@@H](CCCNC(N)=O)C(=O)N[C@@H](CO)C(=O)NCC(=O)NCC(=O)N[C@H](C(=O)N[C@H](C(=O)N[C@@H](CCCCN=C(N)N)C(=O)N[C@@H](CCCCN)C(=O)N[C@@H](CC(N)=O)C(=O)N[C@@H](Cc1ccccc1)C(=O)N[C@H](C(=O)N1CCC[C@H]1C(=O)N[C@H](C(=O)N[C@@H](CC(=O)O)C(=O)N[C@H](C(=O)NCC(=O)N1CSC[C@H]1C(=O)N[C@@H](Cc1ccccc1)C(=O)N[C@@H](C)C(=O)N[C@@H](Cc1ccccc1)C(N)=O)C(C)C)[C@@H](C)O)C(C)C)C(C)C)C(C)C)[C@@H](C)O)C(C)C", "note": "[compound 671]", "IC50": 2.15}
    ]}
  ]
}
